Where two headings read alike, the source gives them in different places. Each block holds one molecule with its values, some of them ahead of it.
Assays:
[1] = molecular target: X. tropicalis Tmem16a (Xenopus tropicalis, UniProt W8PFC5); assay: Whole-cell patch clamp (QPatch) of X. tropicalis Tmem16a transfected into HEK293 cells; type: cell-based
Description: We cloned and expressed full-length X. tropicalis tmem16a in HEK293 cells. At 48 h post-transfection, channel conductance and pharmacological characteristics were examined by whole-cell voltage clamp. Tmem16a channel activity was evoked using membrane depolarisation in the presence of intracellular calcium, and resultant whole-cell currents measured using chloride-selective buffers.
HEK Flp-In-293 null cells (Thermo Fisher) were stored, thawed and cultured as described by the supplier, but without antibiotic supplementation of the growth medium. For transfections, cells were seeded in 75 cm^2 vented culture flasks at a density of 0.018 × 10^6 cells per cm^2 and maintained at 37 °C in 5% CO2 for 24 h, to ensure approximately 40% confluence at the point of transfection. Cells were transfected with 6 µg of pCS2-tmem16a plasmid in a 1:6 volume ratio with transfection reagent GeneJammer (Agilent), according to the manufacturer’s protocol. Transfected cells were maintained in antibiotic-free growth medium at 37 °C in 5% CO2 for 24 h. The transfection medium was then aspirated, replaced with complete growth medium containing 1% penicillin-streptomycin (GIBCO), and cells cultured for a further 24 h at 37 °C in 5% CO2 to achieve 70–80% confluence prior to electrophysiology studies. HEK cells expressing Tmem16a were harvested using a 2:1 volume ratio of Detachin (AMSBio) and 0.05% Trypsin-EDTA (GIBCO), and resuspended in CHO serum-free medium (GIBCO) supplemented with 25 mM HEPES (GIBCO) and 0.04 mg ml^−1 trypsin inhibitor (Sigma Aldrich) to a density of 2.5-5.0 × 10^6 cells ml^−1. […] To prevent clumping of the suspended cells prior to assay, the cell suspension was maintained by stirring gently but continually at room temperature for 20 min to 2 hours.
Single cell whole-cell patch clamp recordings were performed using the QPatch planar patch-clamp system (Sophion Biosciences). The automated platform resuspended the cells in extracellular buffer containing NMDG-Cl (130 mM), HEPES (10 mM), CaCl2 (2 mM) and MgCl2 (1 mM), adjusted to pH 7.30 using HCl and 325 mOsm using sucrose. On establishing single-cell giga-Ohm seals, cell membranes were ruptured by suction pulse and dialysed with intracellular solution containing NMDG-Cl (130 mM), EGTA (20 mM), CaCl2 (20 mM; calculated to deliver a free intracellular [Ca^2+] of 338 nM (https://somapp.ucdmc.ucdavis.edu/pharmacology/bers/maxchelator/webmaxc/webmaxcE.htm) at 22 °C to achieve high Tmem16a-mediated current activation for testing inhibitor compounds), HEPES (10 mM), BAPTA (10 mM), MgCl2 (1 mM) and Mg-ATP (2 mM), adjusted to pH 7.25 using HCl and 325 mOsm using sucrose. The calcium activation curve was achieved by varying CaCl2 concentration from 0 to 25.7 mM to generate a 0-1000 nM range of free intracellular [Ca^2+].
Whole-cell recordings were performed from a resting membrane potential of - 70 mV, applied across the cell membrane between an intracellular (working) and extracellular (reference) electrode in each QPatch recording well. To activate Tmem16a currents, the membrane was depolarised once every 20 s for a duration of 1 s. For concentration-response experiments, this depolarising step was set to + 70 mV. To test current-voltage relationship, the depolarisations were varied between − 90 and + 90 mV in 20 mV increments. Signals were subject to fourth-order Bessel filtering (sampling frequency 10 kHz, cut-off 3 kHz). Capacitance and series resistance were monitored throughout the recordings; data was only accepted from wells in which these parameters remained stable.
All current data was captured at the end of the 1 s depolarising voltage step.

[2] = system: background chloride current of sham HEK-293 transfects; assay: Whole-cell patch clamp of sham-transfected HEK cells (background chloride current); type: cell-based; conditions: 100 µM CaCCinh-A01
From the text: Methods: Pharmacology data was generated from 16 QPatch runs. […] This definition of ‘transfected’ vs ‘untransfected’ was established by comparing transfected cell recordings with ‘sham’ transfects, i.e. cells that had undergone the same transfection process but with the omission of plasmid DNA (Supplementary Figure S1). […] Cells with these characteristics were deemed to be expressing X. tropicalis Tmem16a, and only recordings from successfully-transfected cells which additionally passed seal/series resistance and capacitance quality control criteria, were used in analysis of X. tropicalis Tmem16a currents.

[3] = system: human TMEM16A; conditions: cited from earlier work
[4] = system: human TMEM16Aacd; conditions: cited from earlier work
[5] = system: human TMEM16Aabc; conditions: whole-cell patch clamp ref 65; cited from earlier work
[6] = system: Tmem16a; assay: Wholemount immunofluorescence for Tmem16a in tadpole skin after morpholino injection; type: in vivo, Xenopus tropicalis; conditions: 15 ng MO injected into fertilised egg, tadpoles at NF38, vs MOC
Description: (§1) Embryos for microinjection were de-jellied for approximately five minutes in 0.1 X MMR containing 2% (w/v) L-cysteine (pH 7.8), and washed several times in 0.1 X MMR. Microinjections were performed at NF1/fertilised egg (or, where indicated in the text, NF4/8-cell stage) using a Picospritzer III microinjector (Intracel) to inject 1–4 nl volumes. During injection and for one hour after, embryos were maintained in 0.1 X MMR containing 2% (w/v) Ficoll™ 400 (Thermo Fisher). Antisense morpholino oligonucleotides (MO) and standard control MO (MOC) were designed by and purchased from Gene Tools LLC. MO sequences were: MOC 5′-[…]-3′; tmem16a splice MO 5’-[…]-3’. MOs were reconstituted to 20 ng nl^−1 in non-DEPC-treated nuclease-free water (Thermo Fisher) and stored in small aliquots in tightly-sealed vials at room temperature. MOs were heated at 65 °C for five minutes then vortexed before dilution/use, to ensure the MO was fully dissolved. […]
Wholemount chromogenic and fluorescence in situ hybridisation was performed as previously described[84],[85]. […] Chromogenic staining and fluorescence were visualised by stereomicroscopy (Leica M165 FC using Leica Application Suite X v5.2.2 software) and fluorescence by confocal imaging (Olympus IX81 using FV10-ASW v4.2 software). […] Fiji v2.14.0 software[88] was used to convert images into colours accesible to colour-blind readers.

[7] = system: MucXS secretion from tadpole skin; assay: Ionomycin-induced MucXS secretion into tadpole media (slot blot, anti-MucXS); type: in vivo, Xenopus tropicalis; conditions: 10 min, MO- vs MOC-injected embryos, three biological replicates, p = 0.0062
Description: as §1
Batches of 100 NF42 embryos were collected in 500 µl 0.01 X MMR in a single well of a 24-well plate. […] MucXS in unfractionated or fractionated media was detected via slot blotting and subsequent immunodetection with an anti-MucXS antibody. Quantification of signal from slot blots was achieved using Fiji v2.14.0 software to capture the raw integrated density of pixels for each signal band. […]

[8] = maximally-active current, 338 nM free [Ca2+]i (EC100), +70 mV, HEK293, mean ± SEM, read-out: IC50 X. tropicalis Tmem16a

X. tropicalis Tmem16a, sequence (W8PFC5 entry or part of it): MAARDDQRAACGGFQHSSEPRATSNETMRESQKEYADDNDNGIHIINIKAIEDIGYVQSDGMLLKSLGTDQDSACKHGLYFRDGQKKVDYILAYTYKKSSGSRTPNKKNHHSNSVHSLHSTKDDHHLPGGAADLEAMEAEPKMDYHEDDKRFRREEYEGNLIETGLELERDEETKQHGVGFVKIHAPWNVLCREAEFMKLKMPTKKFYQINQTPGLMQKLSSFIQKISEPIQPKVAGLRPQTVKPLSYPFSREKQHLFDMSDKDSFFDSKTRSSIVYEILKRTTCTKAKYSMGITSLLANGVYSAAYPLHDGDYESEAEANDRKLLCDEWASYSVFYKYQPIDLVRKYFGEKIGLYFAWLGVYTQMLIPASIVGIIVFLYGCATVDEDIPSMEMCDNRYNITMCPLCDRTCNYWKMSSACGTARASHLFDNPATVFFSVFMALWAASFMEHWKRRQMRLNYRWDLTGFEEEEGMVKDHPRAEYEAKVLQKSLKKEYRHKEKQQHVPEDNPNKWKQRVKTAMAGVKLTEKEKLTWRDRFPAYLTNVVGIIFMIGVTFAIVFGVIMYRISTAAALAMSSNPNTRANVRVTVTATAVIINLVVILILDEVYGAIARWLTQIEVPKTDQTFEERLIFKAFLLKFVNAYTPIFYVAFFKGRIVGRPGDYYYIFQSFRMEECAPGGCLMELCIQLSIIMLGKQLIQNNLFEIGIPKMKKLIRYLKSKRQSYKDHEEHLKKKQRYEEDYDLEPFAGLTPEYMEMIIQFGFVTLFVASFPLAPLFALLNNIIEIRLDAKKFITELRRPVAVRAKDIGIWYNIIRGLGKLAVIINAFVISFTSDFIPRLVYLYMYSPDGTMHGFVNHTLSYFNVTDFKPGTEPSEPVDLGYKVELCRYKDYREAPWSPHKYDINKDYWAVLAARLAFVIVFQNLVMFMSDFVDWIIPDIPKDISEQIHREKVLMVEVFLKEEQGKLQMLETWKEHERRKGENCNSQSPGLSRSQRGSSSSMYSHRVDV

Block of large slowly-activating current in tmem16a-transfected cells ([1]; 10 µM Ani9): sensitivity to block | Inhibition of evoked Tmem16a current ([1]; 10 µM Ani9, 1 s step from -70 to +70 mV, 338 nM free [Ca2+]i): completely inhibited | Inhibition of Tmem16a current conductance at varied [Ca2+]i ([1]; 10 µM Ani9, all calcium concentrations, fixed depolarisation voltage): inhibited at all calcium concentrations | IC50 [1, 8]: 0.098 ± 0.009 µM
Molecule: COc1ccccc1/C=N/NC(=O)COc1ccc(Cl)cc1C [Ani9]

Molecule: CC(C)(C)C1CCc2c(sc(NC(=O)c3ccco3)c2C(=O)O)C1 (stereo not shown) [CaCCinhA01]
Block of large slowly-activating current in tmem16a-transfected cells ([1]; 100 µM CaCCinh-A01): sensitivity to block | IC50 [1, 8]: 12.9 ± 1.96 µM | Block of background chloride current in sham transfects [2]: blocked | IC50 ([3]; whole-cell patch clamp ref 62): […]

Molecule: [Ca+2] [intracellular calcium, calcium]
EC50 ([1]; free [Ca2+]i varied, fixed depolarisation voltage, read-out: EC50 of intracellular calcium for current conductance): 0.227 ± 0.043 µM

Molecule: CCc1oc2ccccc2c1C(=O)c1cc(Br)c(O)c(Br)c1 [Benzbromarone]
IC50 [1]: 3.3 ± 1.45 µM | IC50 ([4]; whole-cell patch clamp ref 63): 4.09 µM | IC50 ([4]; whole-cell patch clamp ref 64): 2.35 µM | IC50 [5]: 3.05 µM

Molecule: O=C(O)c1ccc(/C=C2\SC(=S)N(c3cccc(C(F)(F)F)c3)C2=O)cc1 [CFTR Inh-172]
IC50 [1, 8]: > 30 µM

Molecule: O=C(O)c1cccnc1Nc1cccc(C(F)(F)F)c1 [Niflumic acid]
IC50 [1]: 85.1 ± 19.1 µM | IC50 ([4]; whole-cell patch clamp ref 60): 12.1 µM | IC50 ([4]; whole-cell patch clamp ref 61): 8.34 µM | IC50 ([4]; whole-cell patch clamp ref 63): 8.54 µM

Direct inhibition of X. tropicalis Tmem16a channel function ([1]; maximal conductance, 338 nM free [Ca2+]i, +70 mV): did not directly inhibit | IC50 [1, 8]: > 30 µM
Molecule: CCc1c(C)nc(SCC(=O)Nc2nc(-c3ccc(OC)cc3)cs2)[nH]c1=O [T16inh-A01]
IC50 ([4]; whole-cell patch clamp ref 60): 1.51 µM | IC50 ([4]; whole-cell patch clamp ref 63): > 30 µM

Molecule: COc1cc(Nc2ccc([N+](=O)[O-])cc2C(=O)O)cc2ccccc12 [MONNA]
IC50 [1, 8]: 11.9 ± 3.45 µM | IC50 ([4]; whole-cell patch clamp ref 63): 13.6 µM

Molecule: O=C(O)c1c2ccccc2cc2ccccc12 [9-AC]
IC50 [1, 8]: 146 ± 65.8 µM | IC50 ([4]; whole-cell patch clamp ref 60): 57.7 µM

IC50 [1, 8]: > 30 µM
Molecule: COC1=C(OC)C(=O)C(CCCCCCCCCCO)=C(C)C1=O [Idebenone]
% inhibition human TMEM16A by 10 µM ([3]; 10 µM, whole-cell patch clamp ref 61): 54% | % inhibition human TMEM16A by 30 µM ([3]; 30 µM, whole-cell patch clamp ref 61): 90%

Molecule: tmem16a splice MO: antisense morpholino oligonucleotide 5'-AATGTTCATTCTTTTTACCTCTTCA-3' targeting donor splice site of exon 2 of tmem16a pre-mRNA (all phosphorodiamidate morpholino (PMO))
Tmem16a protein in the plasma membrane of SSCs in the tadpole skin [6]: complete loss | Increase of MucXS secretion from the tadpole skin [7]: 3 fold
